Data on 2 compounds can be found in EP2974743B1, “CYCLODEXTRIN CARRIER-BASED ARTEANNUIN COMPOUND CONJUGATE AND PREPARING METHOD THEREOF” (KPC Pharmaceuticals, Inc., priority 2012, dated 2014).

One data set in a line: solubility in water. The class given is physicochemical. To be noted: in words. From the text:
Also, the cyclodextrin carrier-based arteannuinoid compound is absorbed in merely a small amount when passing through stomach and small intestine of a human body, which is mainly absorbed by the large intestine, with a property of releasing in straight cecum. Therefore, the cyclodextrin carrier-based arteannuinoid compound according to the present disclosure can effectively enter the body of a patient, improving the bioavailability.

In data set [1] the test system is mouse hepatocarcinoma H22. To be noted: 300 mg/kg by gavage; cited from earlier work.
A further data set deals with Lovo. Put plainly: MTT assay, tumor cell growth inhibition. Format: cell-based. The note with it: human rectal cancer cells Lovo, 48h culture with compound. The protocol: (§1) For example, 180 µl suspension of human rectal cancer cells HCT116, Lovo, SW480 and HT29 (at a concentration of 4×10^4/mL) was added to a 96 well plate, and pre-cultured under 5% CO2, 37°C and saturated moisture for 24h. 150 µl medium was replaced, and 20 µl medium containing molecular assembly at different concentrations was added. The cells were cultured for another 48h, with the medium free of a sample as a negative control, and a medium containing camptothecin, oxaliplatin or fluorouracil at different concentrations as positive controls. MTT assay was used to determine the OD value, and the growth inhibition rate was calculated. The inhibition of compounds at high, medium and low concentration on the tumor cell proliferation was observed. All the experiments above were performed in triplet. The results of in vitro experiment of the arteannuin cyclodextrin conjugate on human rectum and caecum cancer cell are shown in table 1. Table 1. The comparison of IC50 values (µM) for the cyclodextrin carrier-based arteannuinoid compound conjugate according to the present disclosure and some arteannuinoid compounds in several rectal cancer cells.

A further data set has as its system HT 90. Put plainly: MTT assay, tumor cell growth inhibition. The class given is cell-based. To be noted: human rectal cancer cells HT 90 (text: HT29), 48h culture with compound. The method, then:
as §1
Background: Formazan colour is commonly taken as a measure of viable cells.

The next data set relates to SW480. Put plainly: MTT assay, tumor cell growth inhibition. The class given is cell-based. To be noted: human rectal cancer cells SW480, 48h culture with compound. The protocol: as §1
The next data set concerns HCT116. Put plainly: MTT assay, tumor cell growth inhibition. The class given is cell-based. To be noted: human rectal cancer cells HCT116, 48h culture with compound. The protocol:
as §1

Consider `C[C@H]1[C@H](OC(=O)CCC(=O)O)O[C@@H]2O[C@@]3(C)CC[C@H]4[C@H](C)CC[C@@H]1[C@@]24OO3` [artesunate], for which the solubility in water result in “solubility in water” was “almost insoluble in water”. Also, the anti-tumor rate entry in data set [1] was “above 40%”.
As to “mono-6-artesunate-β-cyclodextrin conjugate [Example 1]”, the IC50 in the data set on Lovo was 0.72 µM; with HT 90 it was 5.3 µM; with SW480, 3.92 µM; with HCT116, 0.84 µM.

For orientation: IC50 means the midpoint of a concentration-inhibition curve.
